Legend:
[1] = AUC in BALB/c mouse at 2 mg/kg, iv; format: ADME, organism-based; parameters: dose 2 mg/kg; settings: in vivo
[2] = Kinetic solubility of compound in 0.1 N HCK solvent at pH 1; format: physicochemical; settings: 0.1 N HCl (printed 0.1 N HCK), read-out: Kinetic_solubility
[3] = Kinetic solubility of compound in acetate buffer at pH 6.5; format: physicochemical; settings: read-out: Kinetic_solubility
[4] = Half life in human liver microsomes; format: ADME, Microsome
[5] = Volume of distribution at steady state in BALB/c mouse at 2 mg/kg, iv; format: ADME, organism-based; settings: in vivo, read-out: Vdss
[6] = Tmax in BALB/c mouse at 4 mg/kg, po; format: ADME, organism-based; settings: in vivo
[7] = AUC in BALB/c mouse at 2 mg/kg, iv measured upto 72 hrs; format: ADME, organism-based; parameters: route intravenous, dose 2 mg/kg, time <=72; settings: in vivo
Cytochrome P450 2D6 = Cytochrome P450 2D6 (Homo sapiens, UniProt P10635); assay: Inhibition of CYP2D6 (unknown origin); format: ADME
Cytochrome P450 2D6, sequence (P10635 whole entry, the tested form may be a part): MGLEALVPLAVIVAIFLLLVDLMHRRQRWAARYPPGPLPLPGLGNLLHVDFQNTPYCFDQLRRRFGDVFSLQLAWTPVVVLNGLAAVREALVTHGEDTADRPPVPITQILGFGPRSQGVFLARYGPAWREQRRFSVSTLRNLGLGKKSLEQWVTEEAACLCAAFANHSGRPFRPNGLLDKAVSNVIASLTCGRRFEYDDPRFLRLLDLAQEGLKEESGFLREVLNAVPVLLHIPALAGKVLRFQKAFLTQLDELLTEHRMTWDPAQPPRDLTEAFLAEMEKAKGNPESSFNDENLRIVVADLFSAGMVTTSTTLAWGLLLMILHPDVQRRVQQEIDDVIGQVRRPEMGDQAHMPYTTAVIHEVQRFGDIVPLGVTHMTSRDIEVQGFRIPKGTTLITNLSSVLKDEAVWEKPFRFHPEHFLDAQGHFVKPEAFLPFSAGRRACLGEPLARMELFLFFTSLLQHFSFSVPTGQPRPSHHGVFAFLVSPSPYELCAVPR

[8] = target: T1, Nuclear receptor ROR-alpha (Homo sapiens, UniProt P35398); assay: Inverse agonist activity at Gal4-fused RORalpha (unknown origin)
T1 sequence (P35398 whole entry): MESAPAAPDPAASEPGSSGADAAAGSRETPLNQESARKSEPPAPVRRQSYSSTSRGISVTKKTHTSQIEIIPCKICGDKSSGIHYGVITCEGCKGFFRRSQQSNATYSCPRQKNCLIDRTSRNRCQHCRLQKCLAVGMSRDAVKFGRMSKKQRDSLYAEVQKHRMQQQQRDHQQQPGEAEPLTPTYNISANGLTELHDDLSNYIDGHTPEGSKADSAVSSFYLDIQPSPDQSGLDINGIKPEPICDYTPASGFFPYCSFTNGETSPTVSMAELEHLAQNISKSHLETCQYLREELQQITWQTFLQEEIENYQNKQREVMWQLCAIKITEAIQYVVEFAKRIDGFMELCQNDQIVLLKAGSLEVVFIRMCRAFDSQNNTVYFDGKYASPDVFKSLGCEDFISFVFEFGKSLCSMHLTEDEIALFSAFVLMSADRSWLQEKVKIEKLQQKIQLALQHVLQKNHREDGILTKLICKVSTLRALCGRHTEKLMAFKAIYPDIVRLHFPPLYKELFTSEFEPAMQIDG

[9] = target: T2, Nuclear receptor ROR-beta (Homo sapiens, UniProt Q92753); assay: Inverse agonist activity at Gal4-fused RORbeta (unknown origin)
T2 sequence (Q92753 whole entry): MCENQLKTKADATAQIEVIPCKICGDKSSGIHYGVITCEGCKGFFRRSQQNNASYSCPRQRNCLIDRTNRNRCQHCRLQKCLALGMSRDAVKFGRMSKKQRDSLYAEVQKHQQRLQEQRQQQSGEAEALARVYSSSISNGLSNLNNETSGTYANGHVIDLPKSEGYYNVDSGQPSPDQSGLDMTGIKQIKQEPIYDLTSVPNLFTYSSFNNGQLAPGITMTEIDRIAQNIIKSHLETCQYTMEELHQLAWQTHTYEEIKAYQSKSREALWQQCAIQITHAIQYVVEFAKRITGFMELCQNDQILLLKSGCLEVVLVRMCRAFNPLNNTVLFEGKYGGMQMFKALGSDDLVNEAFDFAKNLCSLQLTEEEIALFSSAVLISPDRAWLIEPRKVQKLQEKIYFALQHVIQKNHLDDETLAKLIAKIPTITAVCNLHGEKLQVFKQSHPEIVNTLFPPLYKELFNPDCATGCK

HepG2 = assay: Cytotoxicity against human HepG2 cells assessed as reduction in cell viability
[10] = Protein binding in human; format: ADME
[11] = Half life in rat liver microsomes; format: ADME, Microsome
Cytochrome P450 2C19 = Cytochrome P450 2C19 (Homo sapiens, UniProt P33261); assay: Inhibition of CYP2C19 (unknown origin); format: ADME
Cytochrome P450 2C19, sequence (P33261 whole entry): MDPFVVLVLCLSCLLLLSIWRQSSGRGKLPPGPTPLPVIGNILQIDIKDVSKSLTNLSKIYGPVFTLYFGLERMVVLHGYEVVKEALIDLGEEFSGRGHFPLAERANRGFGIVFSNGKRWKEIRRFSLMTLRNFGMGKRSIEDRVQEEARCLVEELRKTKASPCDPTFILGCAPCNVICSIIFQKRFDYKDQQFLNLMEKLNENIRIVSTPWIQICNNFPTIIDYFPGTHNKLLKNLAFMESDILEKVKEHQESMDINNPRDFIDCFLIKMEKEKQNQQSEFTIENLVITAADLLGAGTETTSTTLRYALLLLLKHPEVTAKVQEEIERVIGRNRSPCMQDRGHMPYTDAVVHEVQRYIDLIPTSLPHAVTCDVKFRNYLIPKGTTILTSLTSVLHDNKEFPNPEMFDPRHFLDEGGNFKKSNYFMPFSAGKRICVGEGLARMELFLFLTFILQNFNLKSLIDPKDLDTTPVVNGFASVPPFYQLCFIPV

CC(C)(O)CN1C(=O)[C@H](F)C[C@H]1C(=O)N1CC[C@@]2(S(=O)(=O)c3ccc(F)cc3)c3ccc(C(F)(C(F)(F)F)C(F)(F)F)cc3CC[C@@H]12
AUC [1]: 23.7 µM·h | solubility kinetic [2]: < 1 µg/mL | solubility kinetic [3]: < 1 µg/mL | half-life [4]: > 2 h | Vd [5]: 2.7 L/kg | Tmax [6]: 4.3 h | AUC at 72 h [7]: 23 µM·h | IC50 (Cytochrome P450 2D6): > 20 µM | EC50 [8]: > 10 µM | EC50 [9]: 8.4 µM | EC50 (HepG2): > 100 µM | fraction unbound [10]: 0.025 | half-life [11]: > 2 h | IC50 (Cytochrome P450 2C19): > 20 µM
